test system: MMP-9 production; assay: Determination of MMP-9 Production Inhibitory Activity (PMA-stimulated HEC3 cells, gelatin zymography); assay type: cell-based; settings: Endothelial cell; immortalized human vascular endothelial cells HEC3, PMA 10^-7 M stimulation, 24 hr; test substance at 10, 2, 0.4 and 0.08 μM; read-out: IC50 (MMP-9 production inhibitory rate)
Experimental: Immortalized human vascular endothelial cells HEC3 (supplied by Prof. Iijima of Nagoya University) were subcultured in RPMI1640 medium (Sigma Ltd.) containing 10% fetal calf serum.
The HEC3 cells (5×10^4 cells/well) were plated on a 24-well plate, and cultured in RPMI1640 medium containing 10% fetal calf serum for 24 hr. Each well was washed once with serum-free RPMI1640 medium. Then, RPMI1640 medium (250 μl/well) containing 0.05% fetal calf serum was added to each well, and the cells were further cultured for 2 hr.
The supernatant was removed, and the test substances (Example compounds shown in Table 1) diluted to various concentrations were added and incubated for 1 hr in 0.05% serum-containing RPMI1640 medium and the supernatant was removed again. A medium containing a test substance having the same concentration as in the pre-treatment and PMA (10^−7 M), which is a stimulant, was added at 250 μl/well, and the cells were further cultured for 24 hr.
After completion of the culture, water (50 μl) and 25 μl of SDS buffer (240 mM Tris-HCl (pH 6.8), 8% SDS, 40% glycerol) were added to the culture supernatant (25 μl), and the mixture (10 μl) was electrophoresed on a 7.5% polyacrylamide gel containing 0.1% gelatin.
After the electrophoresis, the gel was washed with Tris-HCl buffer (pH 7.5) containing 0.5% Triton X-100 (Sigma Ltd.) for 1 hr. The gel was immersed in an activation buffer (150 mM NaCl, 50 mM Tris-HCl (pH 7.5), 10 mM CaCl2) at 37° C. for 18 hr to activate MMP-9, and then stained with CBB. The obtained MMP-9 band was converted to numerical values by a densitometer (ATTO. Ltd.).
The MMP-9 production inhibitory rate by the test substance was calculated by the following equation. MMP-9 production inhibitory rate=100−100×{(test substance addition value−non-stimulation value)/(PMA stimulation value−non-stimulation value)}
The MMP-9 production inhibitory rates of the test substance at 10, 2, 0.4 and 0.08 μM were calculated, and IC50 value of the each test substance was determined using an analysis soft (RegExcel).

| Compound | IC50 [µM] |
| --- | --- |
| COc1ccccc1C1(C#N)CCN(C(=O)Nc2n[nH]c3ccccc23)CC1 [Ex. 40] | 0.84 |
| N#CC1(c2ccccc2F)CCN(C(=O)Nc2n[nH]c3ccccc23)CC1 [Ex. 43] | 0.45 |
| N#CC1(c2cc(F)cc(F)c2)CCN(C(=O)Nc2n[nH]c3ccccc23)CC1 [Ex. 47] | 0.35 |
| N#CC1(c2cccc(C(F)(F)F)c2)CCN(C(=O)Nc2n[nH]c3ccccc23)CC1 [Ex. 42] | 0.22 |

same assay, conditions: Homo sapiens, Endothelial cell, 24 h, immortalized human vascular endothelial cells HEC3, PMA 10^-7 M stimulation, test substance at 10, 2, 0.4 and 0.08 μM, read-out: IC50 (MMP-9 production inhibitory rate)

| Compound | IC50 [µM] |
| --- | --- |
| Cc1c(F)cccc1C1(O)CCN(C(=O)Nc2n[nH]c3ccccc23)CC1 [Ex. 134, 4-(3-fluoro-2-methylphenyl)-4-hydroxy-1-piperidinecarboxylic acid (1H-indazol-3-yl)amide] | 0.68 |
| O=C(Nc1n[nH]c2ccccc12)N1CCC(O)(c2cccc(C(F)(F)F)c2)CC1 [Ex. 3] | 0.93 |
| O=C(Nc1n[nH]c2ccccc12)N1CCC(O)(c2ccc(Cl)c(Cl)c2)CC1 [Ex. 21] | 0.38 |
| O=C(Nc1n[nH]c2ccccc12)N1CCC(O)(c2ccc(Cl)cc2)CC1 [Ex. 4] | 0.4 |
| O=C(Nc1n[nH]c2ccccc12)N1CCN(c2cc(C(F)(F)F)ccc2Cl)CC1 [Ex. 99, 4-[2-chloro-5-(trifluoromethyl)phenyl]-1-piperazinecarboxylic acid (1H-indazol-3-yl)amide] | 0.61 |
| O=C(Nc1n[nH]c2ccccc12)N1CC=C(c2ccc(Cl)s2)CC1 [Ex. 58] | 0.12 |
| Cc1cccc(C2(O)CCN(C(=O)Nc3n[nH]c4ccccc34)CC2)c1C [Ex. 144, 4-(2,3-dimethylphenyl)-4-hydroxy-1-piperidinecarboxylic acid (1H-indazol-3-yl)amide] | 0.65 |
| O=C(Nc1n[nH]c2ccccc12)N1CCc2c([nH]c3ccccc23)C1 [Ex. 64] | 0.12 |
| O=C(Nc1n[nH]c2ccccc12)N1CCN(c2cc(F)cc(C(F)(F)F)c2)CC1 [Ex. 97, 4-[3-fluoro-5-(trifluoromethyl)phenyl]-1-piperazinecarboxylic acid (1H-indazol-3-yl)amide] | 0.21 |
| O=C(Nc1n[nH]c2ccccc12)N1CCC(O)(c2ccc(F)c(C(F)(F)F)c2)CC1 [Ex. 9] | 0.34 |
| O=C(Nc1n[nH]c2ccccc12)N1CCc2c([nH]c3cc(C(F)(F)F)ccc23)C1 [Ex. 76] | 0.24 |
| CSc1cccc(C2(O)CCN(C(=O)Nc3n[nH]c4ccccc34)CC2)c1 [Ex. 30] | 0.3 |
| O=C(Nc1n[nH]c2ccccc12)N1CCC(O)(c2ccc(F)c(Cl)c2)CC1 [Ex. 15] | 0.45 |
| O=C(Nc1n[nH]c2ccccc12)N1CCC(O)(c2cccc(Cl)c2)CC1 [Ex. 24] | 0.21 |
| Cc1ccc(F)cc1C1(O)CCN(C(=O)Nc2n[nH]c3ccccc23)CC1 [Ex. 135, 4-(5-fluoro-2-methylphenyl)-4-hydroxy-1-piperidinecarboxylic acid (1H-indazol-3-yl)amide] | 0.49 |
| O=C(Nc1n[nH]c2ccccc12)N1CCC(O)(c2cc(C(F)(F)F)ccc2Cl)CC1 [Ex. 36] | 0.54 |
| N#CC1(c2ccc(Br)s2)CCN(C(=O)Nc2n[nH]c3ccccc23)CC1 [Ex. 46] | 0.55 |
| O=C(Nc1n[nH]c2ccccc12)N1CCC(O)(c2cc(C(F)(F)F)ccc2F)CC1 [Ex. 35] | 0.72 |

| Compound | IC50 [µM] |
| --- | --- |
| O=C(Nc1n[nH]c2ccccc12)N1CC=C(c2cccc(F)c2F)CC1 [Ex. 56] | 0.23 |
| O=C(Nc1n[nH]c2ccccc12)N1CCc2c([nH]c3ccc(Cl)cc23)C1 [Ex. 72] | 0.1 |
| Cc1cc(F)cc(C2(O)CCN(C(=O)Nc3n[nH]c4ccccc34)CC2)c1 [Ex. 138, 4-(3-fluoro-5-methylphenyl)-4-hydroxy-1-piperidinecarboxylic acid (1H-indazol-3-yl)amide] | 0.1 |
| O=C(Nc1n[nH]c2ccccc12)N1CC=C(c2ccc(F)cc2)CC1 [Ex. 50] | 1.3 |
| O=C(Nc1n[nH]c2ccccc12)N1CCc2c([nH]c3ccc(O)cc23)C1 [Ex. 74] | 0.15 |
| O=C(Nc1n[nH]c2ccccc12)N1CCN(c2cccc(C(F)(F)F)c2)CC1 [Ex. 100, 4-[3-(trifluoromethyl)phenyl]-1-piperazinecarboxylic acid (1H-indazol-3-yl)amide] | 0.23 |
| O=C(Nc1n[nH]c2ccccc12)N1CC=C(c2cccc(F)c2)CC1 [Ex. 55] | 0.13 |
| O=C(Nc1n[nH]c2ccccc12)N1CC=C(c2ccccc2F)CC1 [Ex. 52] | 0.32 |
| CN(C)c1cccc(C2=CCN(C(=O)Nc3n[nH]c4ccccc34)CC2)c1 [Ex. 63] | 0.36 |
| O=C(Nc1n[nH]c2ccccc12)N1CCC(O)(c2ccc(Cl)c(C(F)(F)F)c2)CC1 [Ex. 1] | 0.79 |
| O=C(Nc1n[nH]c2ccccc12)N1CCc2c(c(=O)[nH]c3ccccc23)C1 [Ex. 104, 5-oxo-1,4,5,6-tetrahydrobenzo[c]-2,7-naphthyridine-3-carboxylic acid (1H-indazol-3-yl)amide] | 0.01 |
| O=C(Nc1n[nH]c2ccccc12)N1CC=C(c2ccc(F)c(Cl)c2)CC1 [Ex. 53] | 0.24 |
| O=C(Nc1n[nH]c2ccccc12)N1CCc2c([nH]c3cc(Cl)ccc23)C1 [Ex. 75] | 0.11 |
| O=C(Nc1n[nH]c2ccccc12)N1CCN(c2ccc(F)c(C(F)(F)F)c2)CC1 [Ex. 94, 4-[4-fluoro-3-(trifluoromethyl)phenyl]-1-piperazinecarboxylic acid (1H-indazol-3-yl)amide] | 0.34 |
| Cc1ccsc1C1=CCN(C(=O)Nc2n[nH]c3ccccc23)CC1 [Ex. 59] | 0.21 |
| COc1ccc(C2=CCN(C(=O)Nc3n[nH]c4ccccc34)CC2)cc1OC [Ex. 62] | 0.69 |
| Cc1ccc(C2(O)CCN(C(=O)Nc3n[nH]c4ccccc34)CC2)cc1C(F)(F)F [Ex. 10] | 0.53 |
| Cc1cccc(C2(O)CCN(C(=O)Nc3n[nH]c4ccccc34)CC2)c1 [Ex. 28] | 0.36 |

Source: US7994196B2, “Indazole compound and pharmaceutical use thereof” (Mitsubishi Tanabe Pharma Corporation, priority 2004, dated 2011)
